Laboratory results taken from the supplement of paper PMC10627819.

How the values were obtained:
S. aureus DSM 20231 [1] = assay: Bliss interaction score (quartile over a dose matrix) (fitness difference); higher = more antagonism (negative = synergy)
How it was run: (§1)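 Growth in each well was taken as OD595 at entry into stationary phase. Dividing by the plate's robust no-drug mean and capping at 1 gave fitness, and single-drug fitness was inferred from the combination data. The Bliss score, observed minus product-expected fitness, is summarised by quartiles over technical, biological and donor/recipient replicates.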

S. pneumoniae D39V [2] = assay: as above
How it was run: as §1

S. aureus Newman [3] = assay: as above
How it was run: as §1

B. subtilis 168 = assay: as above
How it was run: as §1

S. aureus DSM 20231 [4] = assay: fitness (endpoint OD595 vs no drug) (fraction); higher = more growth
How it was run: (§2)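 Cultures at OD595 0.01 were dispensed into 384-well plates in TSB, LB Lennox or CY and incubated at 37 °C. Every 30 min for 14 h, OD595 was read and corrected by the first reading. Fitness is the optical density at entry into stationary phase relative to the robust mean of no-drug control wells, capped at 1.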

S. pneumoniae D39V [5] = assay: as above
How it was run: as §2

S. aureus Newman [6] = assay: as above
How it was run: as §2
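Throughout, for Bliss interaction score (quartile over a dose matrix): first quartile when negative (synergy) and third quartile when positive (antagonism).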

CCC[C@@H]1C[C@@H](C(=O)N[C@@H]([C@H]2O[C@H](SC)[C@H](O)[C@@H](O)[C@H]2O)[C@H](C)Cl)N(C)C1 [Clindamycin] + CN[C@H](CC(C)C)C(=O)N[C@H]1C(=O)N[C@@H](CC(N)=O)C(=O)N[C@H]2C(=O)N[C@H]3C(=O)N[C@H](C(=O)N[C@H](C(=O)O)c4cc(O)cc(O)c4-c4cc3ccc4O)[C@H](O)c3ccc(c(Cl)c3)Oc3cc2cc(c3O[C@@H]2O[C@H](CO)[C@@H](O)[C@H](O)[C@H]2O[C@H]2C[C@](C)(N)[C@H](O)[C@H](C)O2)Oc2ccc(cc2Cl)[C@H]1O [Vancomycin]
Settings | Bliss interaction score
B. subtilis 168 | 0.0503
S. aureus DSM 20231 [1] | 0.0292
S. aureus Newman [3] | 0.135
S. pneumoniae D39V [2] | 0.111

Settings | fitness
S. aureus DSM 20231 [4], first compound 0.125 µg/mL, partner 0.1875 µg/mL | 0.0642
S. aureus DSM 20231 [4], first compound 0.125 µg/mL, partner 0.375 µg/mL | 0.0657
S. aureus DSM 20231 [4], first compound 0.125 µg/mL, partner 0.75 µg/mL | 0.0731
S. aureus Newman [6], first compound 0.0312 µg/mL, partner 0.1875 µg/mL | 0.764
S. aureus Newman [6], first compound 0.0312 µg/mL, partner 0.375 µg/mL | 0.761
S. aureus Newman [6], first compound 0.0312 µg/mL, partner 0.75 µg/mL | 0.762
S. pneumoniae D39V [5], first compound 0.0125 µg/mL, partner 0.125 µg/mL | 0.782
S. pneumoniae D39V [5], first compound 0.0125 µg/mL, partner 0.25 µg/mL | 0.702
S. pneumoniae D39V [5], first compound 0.0125 µg/mL, partner 0.5 µg/mL | 0.0792
S. pneumoniae D39V [5], first compound 0.015 µg/mL, partner 0.03125 µg/mL | 0.89
S. pneumoniae D39V [5], first compound 0.015 µg/mL, partner 0.0625 µg/mL | 0.844
S. pneumoniae D39V [5], first compound 0.015 µg/mL, partner 0.125 µg/mL | 0.63
S. pneumoniae D39V [5], first compound 0.025 µg/mL, partner 0.125 µg/mL | 0.544
S. pneumoniae D39V [5], first compound 0.025 µg/mL, partner 0.25 µg/mL | 0.47
S. pneumoniae D39V [5], first compound 0.025 µg/mL, partner 0.5 µg/mL | 0.0715
S. pneumoniae D39V [5], first compound 0.03 µg/mL, partner 0.03125 µg/mL | 0.738
S. pneumoniae D39V [5], first compound 0.03 µg/mL, partner 0.0625 µg/mL | 0.7
S. pneumoniae D39V [5], first compound 0.03 µg/mL, partner 0.125 µg/mL | 0.526
S. pneumoniae D39V [5], first compound 0.05 µg/mL, partner 0.125 µg/mL | 0.296
S. pneumoniae D39V [5], first compound 0.05 µg/mL, partner 0.25 µg/mL | 0.237
S. pneumoniae D39V [5], first compound 0.05 µg/mL, partner 0.5 µg/mL | 0.0635
S. pneumoniae D39V [5], first compound 0.06 µg/mL, partner 0.03125 µg/mL | 0.501
S. pneumoniae D39V [5], first compound 0.06 µg/mL, partner 0.0625 µg/mL | 0.47
S. pneumoniae D39V [5], first compound 0.06 µg/mL, partner 0.125 µg/mL | 0.327

CCC[C@@H]1C[C@@H](C(=O)N[C@@H]([C@H]2O[C@H](SC)[C@H](O)[C@@H](O)[C@H]2O)[C@H](C)Cl)N(C)C1 [Clindamycin] + Cn1nnc(-c2ccc(-c3ccc(N4C[C@H](CO)OC4=O)cc3F)cn2)n1 [Tedizolid]
Settings | Bliss interaction score
B. subtilis 168 | 0.134
S. aureus DSM 20231 [1] | -0.024
S. aureus Newman [3] | -0.0925
S. pneumoniae D39V [2] | 0.115

fitness
Settings | partner 0.03125 µg/mL | partner 0.0625 µg/mL | partner 0.125 µg/mL | partner 0.25 µg/mL | partner 0.5 µg/mL
S. aureus DSM 20231 [4], first compound 0.0312 µg/mL | – | – | – | 0.314 | –
S. aureus DSM 20231 [4], first compound 0.0625 µg/mL | – | 0.0876 | 0.0753 | 0.0709 | –
S. aureus DSM 20231 [4], first compound 0.125 µg/mL | – | 0.0391 | 0.0406 | 0.0164 | –
S. aureus Newman [6], first compound 0.125 µg/mL | – | 0.0736 | 0.0453 | 0.0444 | –
S. pneumoniae D39V [5], first compound 0.0125 µg/mL | – | – | 0.551 | 0.434 | 0.201
S. pneumoniae D39V [5], first compound 0.015 µg/mL | 0.901 | 0.918 | 0.778 | – | –
S. pneumoniae D39V [5], first compound 0.025 µg/mL | – | – | 0.375 | 0.33 | 0.149
S. pneumoniae D39V [5], first compound 0.03 µg/mL | 0.781 | 0.814 | 0.721 | – | –
S. pneumoniae D39V [5], first compound 0.05 µg/mL | – | – | 0.224 | 0.166 | 0.097
S. pneumoniae D39V [5], first compound 0.06 µg/mL | 0.641 | 0.646 | 0.605 | – | –

O=C(O[C@@H]1Cc2c(O)cc(O)cc2O[C@@H]1c1cc(O)c(O)c(O)c1)c1cc(O)c(O)c(O)c1 [EGCG] + CN[C@H](CC(C)C)C(=O)N[C@H]1C(=O)N[C@@H](CC(N)=O)C(=O)N[C@H]2C(=O)N[C@H]3C(=O)N[C@H](C(=O)N[C@H](C(=O)O)c4cc(O)cc(O)c4-c4cc3ccc4O)[C@H](O)c3ccc(c(Cl)c3)Oc3cc2cc(c3O[C@@H]2O[C@H](CO)[C@@H](O)[C@H](O)[C@H]2O[C@H]2C[C@](C)(N)[C@H](O)[C@H](C)O2)Oc2ccc(cc2Cl)[C@H]1O [Vancomycin]
Settings | Bliss interaction score
B. subtilis 168 | 0.0425
S. aureus DSM 20231 [1] | 0.0881
S. aureus Newman [3] | -0.0625
S. pneumoniae D39V [2] | 0.0478

fitness
Settings | first compound 12.5 µg/mL | first compound 25 µg/mL | first compound 50 µg/mL
S. aureus DSM 20231 [4], partner 0.1875 µg/mL | 0.846 | 0.747 | 0.753
S. aureus DSM 20231 [4], partner 0.375 µg/mL | 0.842 | 0.781 | 0.836
S. aureus DSM 20231 [4], partner 0.75 µg/mL | 0.865 | 0.885 | 0.738
S. aureus Newman [6], partner 0.1875 µg/mL | 0.754 | 0.782 | –
S. aureus Newman [6], partner 0.375 µg/mL | 0.757 | 0.766 | 0.846
S. aureus Newman [6], partner 0.75 µg/mL | 0.789 | 0.776 | 0.778
S. pneumoniae D39V [5], partner 0.03125 µg/mL | 0.907 | 0.913 | 0.931
S. pneumoniae D39V [5], partner 0.0625 µg/mL | 0.887 | 0.901 | 0.959
S. pneumoniae D39V [5], partner 0.125 µg/mL | 0.889 | 0.89 | 0.948
S. pneumoniae D39V [5], partner 0.25 µg/mL | 0.317 | – | 0.397
S. pneumoniae D39V [5], partner 0.5 µg/mL | 0.0543 | 0.0794 | 0.143

O=C(O[C@@H]1Cc2c(O)cc(O)cc2O[C@@H]1c1cc(O)c(O)c(O)c1)c1cc(O)c(O)c(O)c1 [EGCG] + Cn1nnc(-c2ccc(-c3ccc(N4C[C@H](CO)OC4=O)cc3F)cn2)n1 [Tedizolid]
Settings | Bliss interaction score
B. subtilis 168 | 0.0863
S. aureus DSM 20231 [1] | 0.11
S. aureus Newman [3] | -0.0709
S. pneumoniae D39V [2] | -0.0687

fitness
Settings | partner 0.03125 µg/mL | partner 0.0625 µg/mL | partner 0.125 µg/mL | partner 0.25 µg/mL | partner 0.5 µg/mL
S. aureus DSM 20231 [4], first compound 12.5 µg/mL | – | 0.865 | 0.734 | 0.401 | –
S. aureus DSM 20231 [4], first compound 25 µg/mL | – | 0.762 | 0.783 | 0.569 | –
S. aureus DSM 20231 [4], first compound 50 µg/mL | – | 0.805 | 0.714 | 0.326 | –
S. aureus Newman [6], first compound 12.5 µg/mL | – | 0.735 | 0.673 | 0.329 | –
S. aureus Newman [6], first compound 25 µg/mL | – | 0.783 | 0.679 | – | –
S. aureus Newman [6], first compound 50 µg/mL | – | 0.745 | 0.653 | – | –
S. pneumoniae D39V [5], first compound 12.5 µg/mL | 0.913 | 0.925 | – | 0.308 | 0.194
S. pneumoniae D39V [5], first compound 25 µg/mL | 0.974 | 0.94 | 0.718 | 0.328 | 0.107
S. pneumoniae D39V [5], first compound 50 µg/mL | 0.993 | 0.959 | 0.791 | – | 0.262
